Laboratory results taken from patent US5100591A, “Process for preparing lipid microparticles” (Medgenix Group S.A., priority 1989, dated 1992).
In brackets after ≈: the same amount, converted by molar mass.

How the values were obtained:
[1] = acetic acid and ammonia NH3 in methanol, two equivalents, 5 mg/ml in CH3OH
[2] = Stability of amphotericin B solutions by HPLC analysis; conditions: for Stability in methanol solution in acid medium: topical grade
Description: The stability of the amphotericin B solutions was recorded by HPLC analysis using a reversed-phase column (C18 Bondapak, 25×0.5 cm, Waters Associates). A CH3 CN/10 mM acetate buffer, pH 7, system (39:61) was used as eluent. UV recording was performed at 404 and 362 nm. The flow rate was 2 ml/min. The retention time (RT) of amphotericin B is 9.5 minutes. Results were expressed as the percentage of the peak area.

With `C[C@@H]1[C@H](O)[C@@H](C)/C=C/C=C/C=C/C=C/C=C/C=C/C=C/[C@H](O[C@@H]2O[C@H](C)[C@@H](O)[C@H](N)[C@@H]2O)C[C@@H]2O[C@](O)(C[C@@H](O)C[C@@H](O)[C@H](O)CC[C@@H](O)C[C@@H](O)CC(=O)O[C@H]1C)C[C@H](O)[C@H]2C(=O)O` [amphotericin B] the “Dissolution of amphotericin B” value [1] was “do not dissolve”, the solubility (physchem; ch3oh + 1.0 eq. hcl, organic solvent or mixture, Solubility of i.v. grade amphotericin B) was 5000 µg/mL and the solubility (physchem; ch3oh + 1.0 eq. naoh, organic solvent or mixture, Solubility of i.v. grade amphotericin B) was 5000 µg/mL. For the same compound, the solubility (physchem; ch3oh + 1.5 eq. hcl, organic solvent or mixture, Solubility of topical grade amphotericin B) was 5000 µg/mL, the solubility (physchem; ch3oh + 1.5 eq. naoh, organic solvent or mixture, Solubility of topical grade amphotericin B) was 5000 µg/mL and the solubility (physchem; ch3oh, acid, organic solvent or mixture, Solubility of amphotericin B) was 3000 to 5000 µg/mL (≈ 3250 to 5410 µM). It also gave a solubility (physchem; ch3oh, basic, organic solvent or mixture, Solubility of amphotericin B) of 2000 to 3000 µg/mL (≈ 2160 to 3250 µM), a solubility (physchem; ch3oh, neutral, organic solvent or mixture, Solubility of amphotericin B) of 200 to 400 µg/mL (≈ 216 to 433 µM) and a solubility (physchem; ch3oh, organic solvent or mixture, Solubility of i.v. grade amphotericin B) of 150 µg/mL (≈ 162 µM). It also gave a solubility (physchem; ch3oh, organic solvent or mixture, Solubility of topical grade amphotericin B) of 130 µg/mL (≈ 141 µM), a solubility (physchem; dimethylacetamide, organic solvent or mixture, Solubility of amphotericin B in DMA) of 6000 µg/mL (≈ 6490 µM) and a solubility (physchem; dimethylformamide, acid, organic solvent or mixture, Solubility of amphotericin B) of 60000 to 80000 µg/mL (≈ 64900 to 86600 µM). For the same compound, the solubility (physchem; dimethylformamide, neutral, organic solvent or mixture, Solubility of amphotericin B) was 2000 to 4000 µg/mL (≈ 2160 to 4330 µM), the solubility (physchem; h2o, acid, Solubility of amphotericin B) was 100 µg/mL (≈ 108 µM) and the solubility (physchem; h2o, basic, Solubility of amphotericin B) was 100 µg/mL (≈ 108 µM). The “Stability of neutral CH3OH solution” value ([2]; 0.1 mg/ml, 4° C.) was “stable for several days”, the “Effect of neutralization with methanolic HCl on stability” value ([2]; basic CH3OH solution) was “no effect on the stability” and the “Effect of addition of an excess of NaOH on stability” value ([2]; excess of NaOH, methanolic solution) was “does not affect the stability”. For the same compound, the “Degradation in an acid medium” value ([2]; i.v. grade, methanol, one equivalent HCl, concentration greater than 2 mg/ml) was “increases greatly”, the “Stability in methanolic NaOH solution” value ([2]; i.v. grade, one equivalent NaOH, up to 5 mg/ml) was “good stability” and the “Stability in methanol solution in acid medium” value ([2]; 0.1 mg/ml, 1.5 eq. HCl) was “stable”. For the same compound, the “Stability in methanol solution in acid medium” value ([2]; 5 mg/ml, acid medium (HCl)) was “degraded”.
